Where no end group is shown, it is not given here.
Key:
[1] = system: carrageenan-induced mechanical hyperalgesia; test: Carrageenan inflammatory pain model, Randall-Selitto paw-withdrawal test; assay type: in vivo, rat
Experimental: (§1) The nociceptive flexior reflex was quantified on lightly restrained rats by using a Basile Analgesymeter (Randall-Selitto test). Inflammatory hyperlagesia was induced by injection of Carr (1%, 5 uL, i.d.), which was injected unilaterally to the dorsum of the hindpaw one-hour prior to compound administration. The εPKC inhibitor peptide (εV1-2) was injected via systemic routes.
as §1, with “μL,” for “uL,”, “one-hr” for “one-hour”
The rat carrageenan model has been extensively used to evaluate the response to modulators of inflammatory pain. In the model used for the studies described below, a single 5 microL injection of a 1% solution of carrageenan into the plantar surface of the right hindpaw was used to elicit an inflammatory response resulting in local edema and mechanical hyperalgesia. The mechanical hyperalgesia was quantitated as previously described using measurements of the nociceptive flexion reflex (Randall-Selitto paw-withdrawal test) in response to mechanical painful stimulation at the site of carrageenan injection. […] In the absence of further treatment, the PWT remained stable at ˜55 g for several hours, making it possible to use this model to evaluate the time-course of the response to treatment over the course of at least six hours after the establishment of the disease state.

[2] = Chemical stability of cargo/carrier peptide constructs; assay type: physicochemical
Experimental: (§2) The plasma and chemical stability of various cargo/carrier peptide constructs described in Example 1 was tested. Plasma stability of the compounds was tested using both human and rat sera and the amount of starting material was determined after 30 minutes of treatment. Chemical stability was evaluated by determining the amount of starting material remaining after 9 days of treatment.
The chemical stability of various cargo/carrier peptide constructs described in Example 1 was tested by examining the relative concentration of the peptides over a time period of more than 200 hours at 37° C.

[3] = Plasma stability in rat sera; assay type: in vitro ADME; conditions: 30 minutes
Experimental: as §2
(§3) The plasma stability of various cargo/carrier peptide constructs described in Example 1 was tested using both human and rat sera and the amount of starting material was determined over time to 30 minutes of treatment. The time course data for cargo/carrier peptides KP-1586, KP-1630, and KP-1631 is shown in FIG. 3, the data for peptides KP-1632, KP-1633, and KP-1634 is shown in FIG. 4, and the data for peptides KP-1635, KP-1636, and KP-1637 is shown in FIG. 5.

[4] = Plasma stability in human sera; assay type: in vitro ADME; conditions: for remaining at 0.5 h: plasma, human sera, 30 minutes
Experimental: as §2, §3

For E-A-V-S-L-K-P-T (EAVSLKPT) [εV1-2], which “Anti-hyperalgesic effect after surgical sympathectomy” value ([1]; bilateral lumbar sympathectomy plus suprarenal ganglionectomy 7 days before) is on record?
The value was “completely abolished anti-hyperalgesic effects”.

What about the “Paw-withdrawal threshold (PWT)” value ([1]; intradermal and subcutaneous injection, FIG. 14) of the same compound?
The value was “Increases in paw-withdrawal threshold (PWT)”.

What about the Carr-induced mechanical hyperalgesia ([1]; subcutaneous injection, ipsilateral or contralateral hindlimb or dorsal trunk) of the same compound?
The Carr-induced mechanical hyperalgesia was “dose-dependently suppressed Carr-induced mechanical hyperalgesia”.

And the “Carr-induced mechanical hyperalgesia after nerve transection” value ([1]; subcutaneous, distal to transection of sciatic and saphenous nerves, contralateral paw)?
Its value is “no longer suppression of Carr-induced mechanical hyperalgesia”.

For CC(=O)N[C@@H](CCSSC[C@H](NC(C)=O)C(=O)N[C@@H](CCC(=O)O)C(=O)N[C@@H](C)C(=O)N[C@H](C(=O)N[C@@H](CO)C(=O)N[C@@H](CC(C)C)C(=O)N[C@@H](CCCCN)C(=O)N1CCC[C@H]1C(=O)N[C@H](C(N)=O)[C@@H](C)O)C(C)C)C(=O)N[C@@H](Cc1ccc(O)cc1)C(=O)NCC(=O)N[C@@H](CCCNC(=N)N)C(=O)N[C@@H](CCCCN)C(=O)N[C@@H](CCCCN)C(=O)N[C@@H](CCCNC(=N)N)C(=O)N[C@@H](CCCNC(=N)N)C(=O)N[C@@H](CCC(N)=O)C(=O)N[C@@H](CCCNC(=N)N)C(=O)N[C@@H](CCCNC(=N)N)C(=O)N[C@@H](CCCNC(=N)N)C(=O)O [KP-1637, Ac-C-E-A-V-S-L-K-P-T-NH2], which “Chemical Stability % Remaining at 9 days” value ([2]; 9 days of treatment) is on record?
The value was 100%.

And the “Chemical stability, time course of relative concentration” value ([2]; more than 200 hours at 37° C., FIG. 6)?
The value was “marked stability”.

And the remaining at 0.5 h [3]?
The remaining at 0.5 h was 78%.

What about the remaining at 0.5 h [4] of the same compound?
The remaining at 0.5 h was 60%.

What does the source list for CC(C)C[C@H](NC(=O)[C@H](CO)NC(=O)[C@@H](NC(=O)[C@H](C)NC(=O)[C@H](CCC(=O)O)NC(=O)[C@@H](N)CSSC[C@H](N)C(=O)N[C@@H](Cc1ccc(O)cc1)C(=O)NCC(=O)N[C@@H](CCCNC(=N)N)C(=O)N[C@@H](CCCCN)C(=O)N[C@@H](CCCCN)C(=O)N[C@@H](CCCNC(=N)N)C(=O)N[C@@H](CCCNC(=N)N)C(=O)N[C@@H](CCC(N)=O)C(=O)N[C@@H](CCCNC(=N)N)C(=O)N[C@@H](CCCNC(=N)N)C(=O)N[C@@H](CCCNC(=N)N)C(=O)O)C(C)C)C(=O)N[C@@H](CCCCN)C(=O)N1CCC[C@H]1C(=O)N[C@H](C(=O)O)[C@@H](C)O [KP-1636, C-E-A-V-S-L-K-P-T, reference compound]?
remaining at 216 h ([2]; 9 days of treatment): 27%; remaining at 0.5 h [3]: 79%; remaining at 0.5 h [4]: 79%

For CC(=O)N[C@@H](CSSC[C@H](NC(C)=O)C(=O)N[C@@H](CCC(=O)O)C(=O)N[C@@H](C)C(=O)N[C@H](C(=O)N[C@@H](CO)C(=O)N[C@@H](CC(C)C)C(=O)N[C@@H](CCCCN)C(=O)N1CCC[C@H]1C(=O)N[C@H](C(N)=O)[C@@H](C)O)C(C)C)C(=O)N[C@@H](Cc1ccc(O)cc1)C(=O)NCC(=O)N[C@@H](CCCNC(=N)N)C(=O)N[C@@H](CCCCN)C(=O)N[C@@H](CCCCN)C(=O)N[C@@H](CCCNC(=N)N)C(=O)N[C@@H](CCCNC(=N)N)C(=O)N[C@@H](CCC(N)=O)C(=O)N[C@@H](CCCNC(=N)N)C(=O)N[C@@H](CCCNC(=N)N)C(=O)N[C@@H](CCCNC(=N)N)C(N)=O [KP-1630, Ac-C-E-A-V-S-L-K-P-T-NH2], which remaining at 216 h ([2]; 9 days of treatment) is on record?
Its remaining at 216 h is 67%.

What about the remaining at 0.5 h [3] of the same compound?
Its remaining at 0.5 h is 77%.

And the “Plasma stability, time course to 30 minutes” value ([4]; human and rat sera, FIGS. 3-5)?
The value was “little impact on plasma stability”.

And the remaining at 0.5 h [4]?
The remaining at 0.5 h was 76%.

What does the source list for CC(=O)N[C@@H](CSSC[C@H](NC(C)=O)C(=O)N[C@@H](CC(C)C)C(=O)N[C@@H](CCCCN)C(=O)N1CCC[C@H]1C(=O)N[C@H](C(=O)N[C@@H](C)C(=O)N[C@@H](Cc1c[nH]c2ccccc12)C(=O)N[C@@H](CO)C(=O)N[C@@H](CC(C)C)C(=O)N[C@@H](CCCNC(=N)N)C(N)=O)[C@@H](C)O)C(=O)N[C@@H](Cc1ccc(O)cc1)C(=O)NCC(=O)N[C@@H](CCCNC(=N)N)C(=O)N[C@@H](CCCCN)C(=O)N[C@@H](CCCCN)C(=O)N[C@@H](CCCNC(=N)N)C(=O)N[C@@H](CCCNC(=N)N)C(=O)N[C@@H](CCC(N)=O)C(=O)N[C@@H](CCCNC(=N)N)C(=O)N[C@@H](CCCNC(=N)N)C(=O)N[C@@H](CCCNC(=N)N)C(N)=O [KP-1631, Ac-C-L-K-P-T-A-W-S-L-R-NH2]?
remaining at 216 h ([2]; 9 days of treatment): 76%; remaining at 0.5 h [3]: 67%; remaining at 0.5 h [4]: 49%

Which remaining at 216 h ([2]; 9 days of treatment) does the source give for CC(=O)N[C@@H](CCSSCC[C@H](NC(C)=O)C(=O)N[C@@H](CCC(=O)O)C(=O)N[C@@H](C)C(=O)N[C@H](C(=O)N[C@@H](CO)C(=O)N[C@@H](CC(C)C)C(=O)N[C@@H](CCCCN)C(=O)N1CCC[C@H]1C(=O)N[C@H](C(N)=O)[C@@H](C)O)C(C)C)C(=O)N[C@@H](Cc1ccc(O)cc1)C(=O)NCC(=O)N[C@@H](CCCNC(=N)N)C(=O)N[C@@H](CCCCN)C(=O)N[C@@H](CCCCN)C(=O)N[C@@H](CCCNC(=N)N)C(=O)N[C@@H](CCCNC(=N)N)C(=O)N[C@@H](CCC(N)=O)C(=O)N[C@@H](CCCNC(=N)N)C(=O)N[C@@H](CCCNC(=N)N)C(=O)N[C@@H](CCCNC(=N)N)C(=O)O [KP-1638, Ac-hC-E-A-V-S-L-K-P-T-NH2] here?
Its remaining at 216 h is 100%.

Which remaining at 216 h ([2]; 9 days of treatment) does the source give for CC(=O)N[C@@H](CCC(=O)O)C(=O)N[C@@H](C)C(=O)N[C@H](C(=O)N[C@@H](CO)C(=O)N[C@@H](CC(C)C)C(=O)N[C@@H](CCCCN)C(=O)N1CCC[C@H]1C(=O)N[C@H](C(=O)NCC(=O)NCC(=O)NCCCC[C@H](NC(=O)CNC(=O)CNC(=O)[C@@H](NC(=O)[C@@H]1CCCN1C(=O)[C@H](CCCCN)NC(=O)[C@H](CC(C)C)NC(=O)[C@H](CO)NC(=O)[C@@H](NC(=O)[C@H](C)NC(=O)[C@H](CCC(=O)O)NC(C)=O)C(C)C)[C@@H](C)O)C(=O)N[C@@H](CSSC[C@H](NC(C)=O)C(=O)N[C@@H](Cc1ccc(O)cc1)C(=O)NCC(=O)N[C@@H](CCCNC(=N)N)C(=O)N[C@@H](CCCCN)C(=O)N[C@@H](CCCCN)C(=O)N[C@@H](CCCNC(=N)N)C(=O)N[C@@H](CCCNC(=N)N)C(=O)N[C@@H](CCC(N)=O)C(=O)N[C@@H](CCCNC(=N)N)C(=O)N[C@@H](CCCNC(=N)N)C(=O)N[C@@H](CCCNC(=N)N)C(N)=O)C(=O)O)[C@@H](C)O)C(C)C [KP-1634, [Ac-E-A-V-S-L-K-P-T-G-G]-K-C] here?
The remaining at 216 h was 82%.

What about the remaining at 0.5 h [3] of the same compound?
The remaining at 0.5 h was 106%.

And the remaining at 0.5 h [4]?
Its remaining at 0.5 h is 87%.

What does the source list for CC(=O)N[C@@H](CSSC[C@H](N)C(=O)N[C@@H](CCC(=O)O)C(=O)N[C@@H](C)C(=O)N[C@H](C(=O)N[C@@H](CO)C(=O)N[C@@H](CC(C)C)C(=O)N[C@@H](CCCCN)C(=O)N1CCC[C@H]1C(=O)N[C@H](C(=O)O)[C@@H](C)O)C(C)C)C(=O)N[C@@H](Cc1ccc(O)cc1)C(=O)NCC(=O)N[C@@H](CCCNC(=N)N)C(=O)N[C@@H](CCCCN)C(=O)N[C@@H](CCCCN)C(=O)N[C@@H](CCCNC(=N)N)C(=O)N[C@@H](CCCNC(=N)N)C(=O)N[C@@H](CCC(N)=O)C(=O)N[C@@H](CCCNC(=N)N)C(=O)N[C@@H](CCCNC(=N)N)C(=O)N[C@@H](CCCNC(=N)N)C(N)=O [KP-1586, C-E-A-V-S-L-K-P-T]?
remaining at 216 h ([2]; 9 days of treatment): 57%; remaining at 0.5 h [3]: 77%; remaining at 0.5 h [4]: 85%

For “EAVSLKPTGGYGRKKRRQRRR-NH2 [KP-1633, E-A-V-S-L-K-P-T-G-G-TaT-NH2]”, which remaining at 216 h ([2]; 9 days of treatment) is on record?
Its remaining at 216 h is 99%.

And the remaining at 0.5 h [3]?
Its remaining at 0.5 h is 77%.

And the remaining at 0.5 h [4]?
The remaining at 0.5 h was 83%.

With COc1ccc2c(c1)c(CC(=O)O)c(C)n2C(=O)c1ccc(Cl)cc1 [indomethacin, reference compound] as the compound, how does the Carrageenan-induced mechanical hyperalgesia ([1]; oral, 10 mg/kg, after end of 5-hr IV infusion of KAI-1678) read?
The Carrageenan-induced mechanical hyperalgesia was “completely reversed the mechanical hyperalgesia”.

Which remaining at 216 h ([2]; 9 days of treatment) does the source give for CC(=O)N[C@@H](CSSC[C@@H](NC(=O)[C@@H](CCC(=O)O)NC(=O)[C@@H](C)NC(=O)[C@H](NC(=O)[C@@H](CO)NC(=O)[C@@H](CC(C)C)NC(=O)[C@@H](CCCCN)NC(=O)[C@H]1CCCN1C(=O)[C@H](N)[C@H](C)O)C(C)C)C(=O)O)C(=O)N[C@@H](Cc1ccc(O)cc1)C(=O)NCC(=O)N[C@@H](CCCNC(=N)N)C(=O)N[C@@H](CCCCN)C(=O)N[C@@H](CCCCN)C(=O)N[C@@H](CCCNC(=N)N)C(=O)N[C@@H](CCCNC(=N)N)C(=O)N[C@@H](CCC(N)=O)C(=O)N[C@@H](CCCNC(=N)N)C(=O)N[C@@H](CCCNC(=N)N)C(=O)N[C@@H](CCCNC(=N)N)C(N)=O [KP-1635, t-p-k-l-s-v-a-e-c] here?
Its remaining at 216 h is 95%.

What about the remaining at 0.5 h [3] of the same compound?
The remaining at 0.5 h was 72%.

And the remaining at 0.5 h [4]?
Its remaining at 0.5 h is 63%.

Source: patent publication US8492346B2, “Methods of use of epsilon inhibitor compounds for the attenuation of pain” (KAI Pharmaceuticals, Inc., priority 2007, dated 2013)
